pKi: −log10 of the molar value.
What was measured:
Adenosine receptor A2a = Adenosine receptor A2a (Rattus norvegicus, UniProt P30543)
Adenosine receptor A1 = target: T1, Adenosine receptor A1 (Rattus norvegicus, UniProt P25099)
T1 sequence (P25099 whole entry): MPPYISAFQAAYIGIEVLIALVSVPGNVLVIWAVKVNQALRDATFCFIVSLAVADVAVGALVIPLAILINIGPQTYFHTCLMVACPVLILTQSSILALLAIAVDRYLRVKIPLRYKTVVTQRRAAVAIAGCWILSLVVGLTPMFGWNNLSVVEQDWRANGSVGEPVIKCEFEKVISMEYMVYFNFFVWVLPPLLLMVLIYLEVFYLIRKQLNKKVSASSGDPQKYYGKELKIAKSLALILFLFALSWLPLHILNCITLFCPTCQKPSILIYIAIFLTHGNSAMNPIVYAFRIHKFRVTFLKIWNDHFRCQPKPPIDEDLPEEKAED

Adenosine receptor A2a, sequence (P30543 whole entry): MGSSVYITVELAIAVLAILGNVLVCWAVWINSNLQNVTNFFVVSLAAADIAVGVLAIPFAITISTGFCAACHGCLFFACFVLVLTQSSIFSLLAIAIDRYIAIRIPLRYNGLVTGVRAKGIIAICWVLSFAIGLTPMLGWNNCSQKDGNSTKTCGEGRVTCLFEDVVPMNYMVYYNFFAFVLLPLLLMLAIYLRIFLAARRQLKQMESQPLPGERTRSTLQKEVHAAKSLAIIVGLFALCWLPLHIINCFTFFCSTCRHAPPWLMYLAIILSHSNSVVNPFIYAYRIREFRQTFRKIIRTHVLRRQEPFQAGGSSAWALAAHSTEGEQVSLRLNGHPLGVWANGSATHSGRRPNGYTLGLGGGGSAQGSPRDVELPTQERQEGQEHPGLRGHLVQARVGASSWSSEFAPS

Structure (SMILES) | pKi (Adenosine receptor A2a) | pKi (Adenosine receptor A1)
CCNC(=O)[C@H]1OC(n2cnc3c(N)nc(C#CC(O)c4ccccc4)nc32)[C@@H](O)[C@H]1O (stereo partly drawn) [5-[6-Amino-2-(3-hydroxy-3-phenyl-prop-1-ynyl)-purin-9-yl]-3,4-dihydroxy-tetrahydro-furan-2-carboxylic acid ethylamide] | 8.59 | 8.23
CCNC(=O)C1OC(n2cnc3c(N)nc(C#CC(O)c4ccccc4)nc32)C(O)C1O (stereo not drawn) [R,S-PHPNECA] | 9.05 | 8.60
CCCCC#Cc1nc(N)c2ncn([C@@H]3O[C@H](C(=O)NCC)[C@H](O)C3O)c2n1 (stereo partly drawn) [(2S,3R,5R)-5-[6-amino-2-(hex-1-yn-1-yl)-9H-purin-9-yl]-N-ethyl-3,4-dihydroxyoxolane-2-carboxamide] | 8.66 | 6.89
CCNC(=O)[C@@H]1OC(n2cnc3c(N)nc(C#CC(O)c4ccccc4)nc32)[C@H](O)[C@@H]1O (stereo partly drawn) [S-PHPNECA] | 9.30 | 8.40

From BindingDB's records for doi:10.1016/s0968-0896(97)00172-7 (Universit&Agrave, 1997)
